Data set [1] relates to human proximal tubule cells (hPTCs). To be noted: 48 hours.
In data set [2] the test system is Human primary proximal tubule cells (hPTC). The data set is described as follows: Phospholipidosis (Red Phospholipidosis reagent) and neutral lipid (Green LipidTox) staining of kidney cells exposed to kidney damaging agents. In kind it is cell-based. As to conditions: 48 hours. How it is done:
Testing the effect of combination therapy on human kidney cells exposed to kidney damaging agents—Human primary proximal tubule cells (hPTC) were seeded at density of 10,000 cells/cm^2 in a black 96-well plate. When the cells reach 80% density, treatments were induced. […] The drugs were induced either alone (controls) or in combination with Empagliflozin (SGLT2i) at 5 μM or Fenofibrate at 20 μM, themselves in combination with Quercetin at 20 μM. All different solutions included 1× Red Phospholipidosis staining reagent as well. hPTC were incubated with the different combinations for 48 hours at 37° C. 5% CO2 […]. After 48 hours, the media were removed and replaced with Green LipidTox stain to stain for neutral lipids in green (diluted at 1:200 in hPTC medium). After 45 minutes of incubation at 37° C., the plate was mounted onto a Zeiss epifluorescent microscope for quantification. Each condition was tested in three biological replicates, and light settings were the same for all the images. Images were analyzed with ImageJ. […]

The record followed here is US20230201226A1, “COMBINATION THERAPY FOR REDUCING DRUG-INDUCED NEPHROTOXICITY, DYSLIPIDEMIA AND HYPERGLYCEMIA” (Yissum Research Development Company of the Hebrew …, priority 2020, published 2023).

With `OC[C@H]1O[C@@H](c2ccc(Cl)c(Cc3ccc(O[C@H]4CCOC4)cc3)c2)[C@H](O)[C@@H](O)[C@@H]1O` [empagliflozin, Empagliflozin], the “survival of human proximal tubule cells (hPTCs)” value in data set [1] (co-administration with 1 mM gentamicin, Empagliflozin 5 μM or Fenofibrate 20 μM) is recorded as “dramatically increased the survival”. Besides, the “prevention of Cyclosporine A, Cisplatin and Gentamicin induced lipotoxicity by co-administration” value in data set [2] (Cyclosporine A 1 μM, Cisplatin 1 μM or Gentamicin 1 mM, Empagliflozin 5 μM or Fenofibrate 20 μM) is listed as “prevented”.
Consider Gentamicin, for which, in data set [1] (hPTC, 1 mM gentamicin by itself), the cell death entry is on record as “induced massive cell death”. Also, the “induced lipotoxicity of the kidneys (phospholipids and neutral lipids)” value in data set [2] (kidney damaging agent alone: Cyclosporine A 1 μM, Cisplatin 1 μM, Gentamicin 1 mM) is recorded as “induced lipotoxicity”.
